Test results reported in patent US9963433B2, “Anticancer drugs including the chemical structures of an androgen receptor ligand and a histone deacetylase inhibitor” (Wayne State University, priority 2016, dated 2018).
pIC50: −log10 of the molar value.

How the values were obtained:
[1] = test system: HDACs from Hela cell nuclear extract; assay type: biochemical; conditions: for pIC50: cell-free, FIG. 2A, read-out: IC50, inhibition of HDACs enriched in the Hela nuclear extract
Method: FIGS. 2A-2F show measurement of intrinsic and in situ HDACi activities. […] IC50 values were calculated from nonlinear regression plots using GraphPad Prism5 software. […] Recombinant HDAC6 was incubated with each drug at the indicated concentrations. IC50 values were calculated from nonlinear regression plots using GraphPad Prism5 software.
HDAC activity assay. In vitro HDAC inhibition was measured by using the HDAC fluorimetric assay/drug discovery Kit (Enzo Life Sciences, BML-AK500) and the HDAC6 fluorometric drug discovery kit (Enzo Life Sciences, BML-AK516) following the manufacturer's protocols and instructions. IC50 values were calculated from nonlinear […] plots using GraphPad Prism5 software.
HDAC1 and HDAC2 are enriched in nuclear extracts whereas HDAC6 is a cytosolic enzyme that is the principal modulator of the acetylation status of Hsp90. […] Again, TSA served as the positive control in FIG. 2D.

DLC1 mRNA in LNCaP cells = experiment: In situ HDACi activity: DLC1 mRNA in LNCaP cells; assay type: cell-based; conditions: 10 μM, 48 h, normalized to GAPDH mRNA, FIG. 2E
Method: (§1) FIGS. 2A-2F show measurement of intrinsic and in situ HDACi activities. […]. IC50 values were calculated from nonlinear regression plots using GraphPad Prism5 software. (2B) Enz, 1002 and 3-52 were tested against HeLa cell nuclear extract at 10 μM and 25 μM and TSA (1 μM) was used as positive control. […] Recombinant HDAC6 was incubated with each drug at the indicated concentrations. IC50 values were calculated from nonlinear regression plots using GraphPad Prism5 software. (2D) Enz, 1002 and 3-52 were tested against recombinant HDAC6 at 10 μM and 25 μM and TSA (1 μM) was used as positive control. […]
(§2) Cell Culture and Reagents. LNCaP and 22Rv1 cell lines were from American Type Culture Collection (Manassas, Va.). C4-2 cells were kindly provided by Dr. Edwin Sanchez (University of Toledo). LNCaP and C4-2 cells were routinely grown at 37° C. in 5% CO2 in RPMI 1640 medium supplemented with 10% FBS (Invitrogen); 100 units/ml penicillin, 100 μg/ml streptomycin, 2 mM L-glutamine mixture (Invitrogen); and sodium pyruvate (1 mM) (Invitrogen). 22Rv1 cells were grown in RPMI 1640 medium supplemented with 10% FBS (Invitrogen); 100 units/ml penicillin, 100 μg/ml streptomycin, 2 mM L-glutamine mixture (Invitrogen). Affinity-purified rabbit anti-human antibody to AR (sc-816) and mouse anti-human antibody to GAPDH (sc-47724) were purchased from Santa Cruz Biotechnology (Santa Cruz, Calif.). Affinity-purified rabbit anti-human antibody to Hsp90 (C45G5) #4877 and rabbit anti-human antibody to acetylated lysine #9441 were purchased from Cell Signaling Technology. R1881 was kindly provided by Dr. Stephan Patrick (Karmanos Cancer Institute). All experiments were conducted using phenol-red free growth media. For hormone depletion, cells were grown in phenol-red free RPMI 1640 medium supplemented with 10% charcoal stripped FBS (Sigma-Aldrich) which was heat inactivated at 56° C. for thirty minutes, and a mixture of 100 units/ml penicillin, 100 μg/ml streptomycin and 2 mM L-glutamine for 96 h.
(§3) RNA isolation, Reverse Transcription, and Real Time PCR. Total RNA was isolated from cells using the RNeasy Mini Kit (Qiagen). Reverse transcription PCR was then performed using 500 ng of total RNA with random primers and using the high-capacity complementary DNA Archive kit (Applied Biosystems). The complementary DNA from this reaction was measured using quantitative real time PCR using the StepONE Plus Real Time PCR system (Life Technologies Corporation, Carlsbad, Calif.). All reactions were performed in triplicate and normalized to glyceraldehyde-3-phosphate-dehydrogenase values in the same samples. All primers and Taqman probes were purchased from the applied Biosystems inventory (Invitrogen) (Patki et al., 2015).
. […]

DLC1 mRNA in C4-2 cells = experiment: In situ HDACi activity: DLC1 mRNA in C4-2 cells; assay type: cell-based; conditions: 48 h, normalized to GAPDH mRNA, FIG. 2F
Method: as §1, §2, §3
. […]

[2] = test system: KLK3 mRNA (AR target gene) in C4-2 cells; experiment: Inhibition of R1881 activation of KLK3 mRNA in C4-2 cells; assay type: cell-based; conditions: hormone depleted 96 h, R1881 1 nM, compound 1-10 μM, 48 h, FIG. 3A
Method: (§4) Cell Culture and Reagents. LNCaP and 22Rv1 cell lines were from American Type Culture Collection (Manassas, Va.). C4-2 cells were kindly provided by Dr. Edwin Sanchez (University of Toledo). […] R1881 was kindly provided by Dr. Stephan Patrick (Karmanos Cancer Institute). All experiments were conducted using phenol-red free growth media.
as §3, with “samples.” for “samples. All primers and Taqman probes were purchased from the applied Biosystems inventory (Invitrogen) (Patki et al., 2015).”

[3] = test system: TMPRSS2 mRNA (AR target gene) in C4-2 cells; experiment: Inhibition of R1881 activation of TMPRSS2 mRNA in C4-2 cells; assay type: cell-based; conditions: hormone depleted 96 h, R1881 1 nM, compound 1-10 μM, 48 h, FIG. 3B
Method: as §4
as §3, with “samples.” for “samples. All primers and Taqman probes were purchased from the applied Biosystems inventory (Invitrogen) (Patki et al., 2015).”

p21 mRNA in LNCaP cells = experiment: p21 mRNA induction in LNCaP cells; conditions: 10 μM, 48 h, FIG. 5A
Hsp90 = experiment: Western blot of Hsp90 protein in C4-2 cells; conditions: 1 μM to 10 μM, 24 h, relative to GAPDH, FIG. 4B
Method: (§5) Cells were then harvested for western blot analysis using antibody to AR (4A), HSP90 (4B), Acetyl-Lysine (4C) or GAPDH (loading control). ImageJ software was used to determine the intensities of the bands relative to the vehicle control for each protein. The values were then divided by the values for GAPDH within the same samples.
(§6) Western Blot Analysis. Cells were washed once with phosphate buffered saline (PBS) and then lysed with RIPA buffer (150 mM NaCl, 1% Nonidet P-40, 0.5% sodium deoxycholate, 0.1% SDS, 50 mM Tris of pH 8.0) containing a protease inhibitor cocktail (Pierce, Thermo Fisher Scientific). The cell lysates were then incubated on ice for 40 minutes. Total protein concentrations were estimated using the Bradford Assay (Bio-Rad). Protein samples (10-40 ug) were heated at 95° C. for 5 minutes and resolved by electrophoresis on 8% polyacrylamide-SDS gels and electrophoretically transferred to PVDF membranes (Millipore, Billerica, Mass.). The membranes were then probed overnight at 4° C. with the appropriate primary antibody followed by the appropriate horseradish peroxidase-conjugated secondary antibody.

[4] = test system: 55 KDa polypeptide (putative Hsp90 fragment); experiment: Western blot of acetylated lysine in C4-2 cells; conditions: 24 h, acetylated lysine antibody, FIG. 4C
Method: as §5, §6

Row | SMILES | pIC50 [1] | DLC1 mRNA expression (DLC1 mRNA in LNCaP cells) | DLC1 mRNA expression (DLC1 mRNA in C4-2 cells) | inhibition of activation of KLK3 by R1881 [2] | inhibition of activation of TMPRSS2 by R1881 [3] | p21 mRNA expression (p21 mRNA in LNCaP cells) | Hsp90 protein level (degradation) (Hsp90) | hyper-acetylation of a 55 KDa polypeptide [4] | inhibition of nuclear HDAC activity ([1]; HeLa cell nuclear extract, tested at 10 μM and 25 μM, FIG. 2B)
1 | CC1(C)C(=O)N(c2ccc(C#N)c(C(F)(F)F)c2)C(=S)N1c1ccc(C(=O)NCCCCCCC(=O)NO)c(F)c1 [Compound 2-75, 4-(3-(4-cyano-3-(trifluoromethyl)phenyl)-5,5-dimethyl-4-oxo-2-thioxoimidazolidin-1-yl)-2-fluoro-N-(7-(hydroxyamino)-7-oxoheptyl)benzamide] | 5.97 | poor inducers of DLC1 mRNA compared with SAHA | poor inducers of DLC1 mRNA compared with SAHA | better inhibitors of gene activation by androgen compared with either Enz or SAHA | better inhibitors of gene activation by androgen compared with either Enz or SAHA | induced p21 to a greater extent than SAHA | more marked reduction in Hsp90 | hyper-acetylation of a 55 KDa polypeptide | 
2 | CC1(C)C(=O)N(c2ccc(C#N)c(C(F)(F)F)c2)C(=S)N1c1ccc(/C=C/C(=O)NO)c(F)c1 [Compound 1005, (E)-3-(4-(3-(4-cyano-3-(trifluoromethyl)phenyl)-5,5-dimethyl-4-oxo-2-thioxoimidazolidin-1-yl)-2-fluorophenyl)-N-hydroxyacrylamide] | 5.62 | poor inducers of DLC1 mRNA compared with SAHA | poor inducers of DLC1 mRNA compared with SAHA | better inhibitors of gene activation by androgen compared with either Enz or SAHA | better inhibitors of gene activation by androgen compared with either Enz or SAHA | induced p21 to a greater extent than SAHA | more marked reduction in Hsp90 | hyper-acetylation of a 55 KDa polypeptide | 
3 | CNC(=O)c1ccc(N2C(=S)N(c3ccc(C#N)c(C(F)(F)F)c3)C(=O)C2(C)C)cc1F [Enz, Enzalutamide, reference compound] |  | had no effect | had no effect | progressive inhibition at higher doses | progressive inhibition at higher doses | had no effect | had no effect | not | lacked any HDACi activity
